Legend:
[1] = test system: MCF-7 (human breast cancer cell line); experiment: Cytotoxicity test by MTT assay, MCF-7; assay type: cell-based; settings: Homo sapiens, MCF7; MCF-7, 30 μM, 48 h; read-out: Cell viability (% inhibition)
Experimental: (§1) A cytotoxicity test was measured by MTT assay. Each cell line was cultured in a 96-well plate at a density of 1×10^4 cells/well. […] MTT (3-(4,5-dimethylthiazol-2-yl)-2,5-diphenyltetrazolium bromide) solution (5 mg/mL) was added to each well and reacted for 4 hours in an incubator. […] After reacting in an incubator for 30 minutes, the formation of formazan was quantified using a microplate reader at an absorbance of 540 nm. […] At this time, sunitinib was used as a control group. […] The human cancer cell lines used herein are MCF-7 (breast cancer), MDA-MB-231 (breast cancer), HT-29 (colon cancer), DU145 (prostate cancer), U937 (myeloid leukemia), A549 (lung cancer), PANC-1 (pancreatic cancer) and MIA PaCa-2 (pancreatic cancer).

[2] = test system: PANC-1 (human pancreatic cancer cell line); experiment: Cytotoxicity test by MTT assay, PANC-1; assay type: cell-based; settings: Homo sapiens; PANC-1, 30 μM, 48 h; read-out: Cell viability (% inhibition)
Experimental: as §1

Compound: CCC(/C=C1\C(=O)Nc2nc(C)c(O)c(C)c21)CC [Compound I-02, (Z)-3-(2-Ethylbutylidene)-5-hydroxy-4,6-dimethyl-1H-pyrrolo[2,3-b]pyridin-2(3H)-one]
- cytotoxicity at 30 µM [1]: 30.5%
- cytotoxicity at 30 µM [2]: 44.9%

Compound: CC(C)=C/C=C1\C(=O)Nc2nc(C)c(O)c(C)c21 [Compound I-03, (Z)-5-Hydroxy-4,6-dimethyl-3-(3-methylbut-2-enylidene)-1H-pyrrolo[2,3-b]pyridin-2(3H)-one]
- cytotoxicity at 30 µM [1]: 6.6%
- cytotoxicity at 30 µM [2]: 37.5%

Compound: COc1cc(/C=C/C=C2\C(=O)Nc3nc(C)c(O)c(C)c32)ccc1O [Compound I-04, (Z)-5-Hydroxy-3-((E)-3-(4-hydroxy-3-methoxyphenyl)allylidene)-4,6-dimethyl-1H-pyrrolo[2,3-b]pyridin-2(3H)-one]
- cytotoxicity at 30 µM [1]: 6.9%
- cytotoxicity at 30 µM [2]: 24.4%

Compound: Cc1nc2c(c(C)c1O)/C(=C/C1CCCCC1)C(=O)N2 [Compound I-05, (Z)-3-(Cyclohexylmethylene)-5-hydroxy-4,6-dimethyl-1H-pyrrolo[2,3-b]pyridin-2(3H)-one]
- cytotoxicity at 30 µM [1]: 10%
- cytotoxicity at 30 µM [2]: 49%

Compound: Cc1ccc(/C=C2\C(=O)Nc3nc(C)c(O)c(C)c32)cc1 [Compound I-06, (Z)-5-Hydroxy-4,6-dimethyl-3-(4-methylbenzylidene)-1H-pyrrolo[2,3-b]pyridin-2(3H)-one]
- cytotoxicity at 30 µM [1]: 32.3%
- cytotoxicity at 30 µM [2]: 29.1%

Compound: Cc1nc2c(c(C)c1O)/C(=C/c1ccccc1[N+](=O)[O-])C(=O)N2 [Compound I-07, (Z)-5-Hydroxy-4,6-dimethyl-3-(2-nitrobenzylidene)-1H-pyrrolo[2,3-b]pyridin-2(3H)-one]
- cytotoxicity at 30 µM [1]: 23.9%
- cytotoxicity at 30 µM [2]: 27.8%

Compound: Cc1nc2c(c(C)c1O)/C(=C/c1ccc([N+](=O)[O-])cc1)C(=O)N2 [Compound I-08, (Z)-5-Hydroxy-4,6-dimethyl-3-(4-nitrobenzylidene)-1H-pyrrolo[2,3-b]pyridin-2(3H)-one]
- cytotoxicity at 30 µM [1]: 16.3%
- cytotoxicity at 30 µM [2]: 32.5%

Compound: Cc1nc2c(c(C)c1O)/C(=C/c1ccc(F)cc1)C(=O)N2 [Compound I-09, (Z)-3-(4-Fluorobenzylidene)-5-hydroxy-4,6-dimethyl-1H-pyrrolo[2,3-b]pyridin-2(3H)-one]
- cytotoxicity at 30 µM [1]: 48.3%
- cytotoxicity at 30 µM [2]: 51.8%

Compound: Cc1nc2c(c(C)c1O)/C(=C/c1ccc(Cl)cc1)C(=O)N2 [Compound I-10, (Z)-3-(4-Chlorobenzylidene)-5-hydroxy-4,6-dimethyl-1H-pyrrolo[2,3-b]pyridin-2(3H)-one]
- cytotoxicity at 30 µM [1]: 51.7%
- cytotoxicity at 30 µM [2]: 44.9%

Compound: Cc1nc2c(c(C)c1O)/C(=C/c1ccccc1O)C(=O)N2 [Compound I-11, (Z)-5-Hydroxy-3-(2-hydroxybenzylidene)-4,6-dimethyl-1H-pyrrolo[2,3-b]pyridin-2(3H)-one]
- cytotoxicity at 30 µM [1]: 29.2%
- cytotoxicity at 30 µM [2]: 42%

Compound: COc1ccccc1/C=C1\C(=O)Nc2nc(C)c(O)c(C)c21 [Compound I-12, (Z)-5-hydroxy-3-(2-methoxybenzylidene)-4,6-dimethyl-1H-pyrrolo[2,3-b]pyridin-2(3H)-one]
- cytotoxicity at 30 µM [1]: 30.7%
- cytotoxicity at 30 µM [2]: 10.2%

Compound: COc1cccc(/C=C2\C(=O)Nc3nc(C)c(O)c(C)c32)c1 [Compound I-13, (Z)-5-Hydroxy-3-(3-methoxybenzylidene)-4,6-dimethyl-1H-pyrrolo[2,3-b]pyridin-2(3H)-one]
- cytotoxicity at 30 µM [1]: 29.6%
- cytotoxicity at 30 µM [2]: 46.4%

Compound: COc1ccc(/C=C2\C(=O)Nc3nc(C)c(O)c(C)c32)cc1 [Compound I-14, (Z)-5-Hydroxy-3-(4-methoxybenzylidene)-4,6-dimethyl-1H-pyrrolo[2,3-b]pyridin-2(3H)-one]
- cytotoxicity at 30 µM [1]: 23.9%
- cytotoxicity at 30 µM [2]: 36.3%

Compound: COc1cc(/C=C2\C(=O)Nc3nc(C)c(O)c(C)c32)cc(OC)c1OC [Compound I-16, (Z)-5-Hydroxy-4,6-dimethyl-3-(3,4,5-trimethoxybenzylidene)-1H-pyrrolo[2,3-b]pyridin-2(3H)-one]
- cytotoxicity at 30 µM [1]: 41.2%
- cytotoxicity at 30 µM [2]: 40.6%
